# Assay results taken from patent publication US10370436B2, “Anti-pseudomonas Psl binding molecules and uses thereof” (priority 2011, dated 2019).
# Experiments:
# PAO1ΔpslA = assay: OPK assay, Psl-deficient PAO1ΔpslA and complemented strain; format: cell-based, Pseudomonas aeruginosa; conditions: complemented PAO1ΔpslA in contrast to the mutant; FIGS. 3F, 3G
# Procedure: This example describes the evaluation of prioritized human IgG1 antibodies to promote OPK of P. aeruginosa. […] OPK assays were performed as described in (DiGiandomenico, A., et al., Infect Immun 72, 7012-7021 (2004)), with modifications. Briefly, assays were performed in 96-well plates using 0.025 ml of each OPK component; P. aeruginosa strains; diluted baby rabbit serum; differentiated HL-60 cells; and monoclonal antibody. In some OPK assays, luminescent P. aeruginosa strains, which were constructed as described (Choi, K. H., et al., Nat Methods 2, 443-448 (2005)), were used. Luminescent OPK assays were performed as described above but with determination of relative luciferase units (RLUs) using a Perkin Elmer ENVISION Multilabel plate reader (Perkin Elmer). […]
# This example describes two series of experiments evaluating the ability of PMB-mAb conjugates to promote OPK of P. aeruginosa. In the first experiments (FIGS. 15A-B), conjugate-mediated OPK activity by human HL-60 neutrophil cell line in the presence of rabbit complement was evaluated using P. aeruginosa strains expressing bacterial luciferase as described in Example 2. […] In the second series of experiments, reduction in luminescence following 2 h incubation relative to control lacking mAb was used to determine % killing.
# [1] = system: P. aeruginosa strains PAO1, 33356, 6294, 6077, 6206; assay: Acute pneumonia model, organ burden; format: in vivo, BALB/c mice
# Procedure: Antibodies or PBS were administered 24 hours before infection in each model. P. aeruginosa acute pneumonia, keratitis, and thermal injury infection models were performed as described (DiGiandomenico, A., et al., Proc Natl Acad Sci USA 104, 4624-4629 (2007)), with modifications. In the acute pneumonia model, BALB/c mice (The Jackson Laboratory) were infected with P. aeruginosa strains suspended in a 0.05 ml inoculum. In the thermal injury model, CF-1 mice (Charles River) received a 10% total body surface area burn with a metal brand heated to 92° C. for 10 seconds. Animals were infected subcutaneously with P. aeruginosa strain 6077 at the indicated dose. For organ burden experiments, acute pneumonia was induced in mice followed by harvesting of lungs, spleens, and kidneys 24 hours post-infection for determination of CFU.
substance,measurement,setting,value
"Cam-003: human IgG1 anti-Psl monoclonal antibody, VH SEQ ID NO: 1 and VL SEQ ID NO: 2",ability to mediate opsonic killing,PAO1ΔpslA,restored
same,dissemination to the spleen and kidneys,"[1]; PAO1, 6294 and 6077, FIGS. 7A, 7C, 7D",marked effect in reducing dissemination to the spleen and kidneys
same,lung burden (viable CFU),"[1]; PAO1, 33356, 6294, 6077, 24 hours post-infection, FIGS. 7A-D",effective at reducing P. aeruginosa lung burden against all four strains tested
same,"lung burden, dose dependence","[1]; cytotoxic strain 6077, FIG. 7D",the low dose was as effective as the higher dose
